From US20160143926A1, “COMPOSITIONS AND METHODS FOR THE PREPARATION OF KIDNEY PROTECTIVE AGENTS COMPRISING AMIFOSTINE AND AMINO ACIDS” (priority 2013, published 2016)
Several values for one entry are separate records, joined by “and”; a condition that tells them apart may be missing. Equal entries are not always repeated. Where two headings read alike, the source gives them in different places.

What was measured:
kidneys [1] = details: patients, 111In-DTPA-octretreotide, cited from earlier work
kidneys [2] = details: rats, intravenous co-injection of 400 mg/kg with 111In-DTPA-octretide; cited from earlier work
kidneys [3] = assay: Kidney protection / 68Ga-DOTATATE uptake in the kidneys, biodistribution studies in mice; type: in vivo; details: Amifostine alone at a dose of 0.63 mg/ml, co-administrated with 68Ga-DOTATATE
Experimental: The first i.v. injection of the composition may be scheduled 30 min prior to 68Ga-DOTATATE administration, while the next two injections may be performed at 15 min and 60 min, respectively, after the radiopeptide administration.
Kidney protection effects of Lysine-Arginine (12.4 mg/ml and 12.5 mg/ml, respectively) and commercially available Clinisol® and Gelofusine co-injected with ^68Ga-DOTATATE (40 uCi) are determined based on biodistribution studies in mice. Lysine-Arginine, Clinisol® and Gelofusine solutions were used as positive controls to determine the efficacies of compositions in accordance with embodiments of the invention.
Mice (n=5/group, male 6-8 weeks old) were given tail intravenous injection (200 ul) of respective solutions, 30 min prior to the administration of ^68Ga-DOTATATE, followed by further injections at 15 min and 1 hr post injection. An example of application schedule is illustrated in FIG. 1.
Mice were then sacrificed by CO2 asphyxiation, and kidneys were collected to determine the amounts of radiation absorbed, which are then compared to the total injected radioactive doses.
Mice (n=5/group, male 6-8 weeks old) were given tail intravenous injection (200 ul) of respective solutions, 30 min prior to the administration ^68Ga-DOTATATE, followed by further injections 15 min and 1 hr post injection, as described in Example 1.

Question: For NCCCC[C@H](N)C(=O)O [lysine], which kidney protection (kidneys [1]; 25 g of lysine) is on record?
Answer: The kidney protection was 17%±9%.

Question: What about the kidney protection (kidneys [1]; infusion of 75 g of lysine) of the same compound?
Answer: The kidney protection was 44%±11%.

Question: Which kidney protection (kidneys [2]) does the source give for NCCCC[C@H](N)C(=O)O [L-Lysine] here?
Answer: The kidney protection was 40%.

Question: With NCCCNCCSP(=O)(O)O [Amifostine] as the compound, how does the “kidney protection, Amifostine used alone” value (kidneys [3]) read?
Answer: Its value is 12.24% and 12.2%.
